Where a SMILES comes first, the peptide text is derived from it.
Legend:
CXCR4 receptor = CXCR4 receptor (Homo sapiens, UniProt P61073); assay: Inhibition of SDF-1α-induced intracellular calcium release (Fura-2/AM) in HeLa and U87 cells; assay type: cell-based; conditions: SDF-1α-induced intracellular calcium release; Table 2
Description: The effect of the peptides on CXCR4-mediated calcium fluxes in HeLa cells that naturally express the CXCR4 receptor and U87 cells stably expressing the CXCR4 receptor was tested as follows. Cells grown on Nunc cover glass chamber slides were incubated with 1 micromolar Fura-2/AM for 20 min in a CO2-incubator, rinsed with PBS and mounted on the stage of a Zeiss Axiovert inverted microscope. [Ca^2+]i measurements were performed using an Attofluor digital imaging system (Atto Instruments, Rockville, Md.). Fluorescence of Fura was excited at alternating wavelength of 340 and 380 nm. […] Calibrations of [Ca^2+]i signals were performed using Ca^2+ standards containing 1 micromolar Fura. CXCR4 antagonists were tested on HeLa cells and U87 cells. Stromal cell-derived factor-1α (SDF-1α) was used as a specific CXCR4 agonist. CCR5 antagonists, which were used in selectivity studies as described below, were tested on HEK (human kidney […]) cells stably expressing the CCR5 receptor and RANTES was used as an agonist. The antagonist activity of the peptides was evaluated by measuring the inhibition of agonist-evoked intracellular Ca^2+i release. These measurements were carried out in Fura-2/AM-treated cells, utilizing an Attofluor digital imaging system as described above. The agonist was SDF-1 α.

HIV-1RF = assay: Anti-HIV-1 cytoprotection assay, CEM-SS cells infected with HIV-1RF; assay type: cell-based; conditions: HIV-1 strain RF, FIG. 2

Chain of CXCR4 receptor (P61073 whole entry): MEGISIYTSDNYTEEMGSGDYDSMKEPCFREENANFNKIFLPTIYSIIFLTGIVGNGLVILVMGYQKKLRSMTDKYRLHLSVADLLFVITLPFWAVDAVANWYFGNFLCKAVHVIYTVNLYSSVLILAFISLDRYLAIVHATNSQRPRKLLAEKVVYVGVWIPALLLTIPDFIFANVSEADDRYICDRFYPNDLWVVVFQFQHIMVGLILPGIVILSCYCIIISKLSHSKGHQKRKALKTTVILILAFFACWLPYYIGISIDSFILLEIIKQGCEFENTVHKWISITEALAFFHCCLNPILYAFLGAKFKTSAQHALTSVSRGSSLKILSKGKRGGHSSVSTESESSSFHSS

Concentration, required for inhibition of signal transduction (CXCR4 receptor): 5 µM
SMILES: CC[C@H](C)[C@H](NC(=O)[C@H](Cc1ccccc1)NC(=O)[C@H](CC(=O)O)NC(=O)[C@@H]1CCCN1C(=O)[C@@H](NC(=O)[C@@H](NC(=O)[C@H](CC(C)C)NC(=O)[C@H](CC(C)C)NC(=O)[C@H](CC(C)C)NC(=O)[C@H](C)NC(=O)[C@@H]1CCCN1C(=O)[C@@H](NC(=O)[C@H](Cc1c[nH]c2ccccc12)NC(=O)[C@@H](NC(=O)CNC(=O)[C@@H](NC(=O)[C@H](Cc1ccc(O)cc1)NC(=O)[C@@H](N)C(C)C)C(C)C)C(C)C)[C@@H](C)CC)[C@@H](C)O)[C@@H](C)CC)C(=O)N[C@@H](Cc1ccccc1)C(=O)N[C@@H](C)C(=O)N[C@@H](CC(N)=O)C(=O)N[C@@H](CC(=O)O)C(=O)N[C@@H](CC(=O)O)C(=O)O [Peptide F-4-2] (H-VYVGVWIPALLLTIPDFIFANDD-OH; N-terminus and C-terminus assumed)
Concentration that completely inhibited infection (HIV-1RF): 1 µM

Source: patent publication US7105488B1, “G protein-coupled receptor antagonists” (priority 1998, dated 2006)
